EC50 data for 20 compounds are collected here from US20210155644A1, “CYCLOPENTENYL PURINE DERIVATIVE OR SALT THEREOF” (Fujifilm Corporation, priority 2018, published 2021).

In this assay the test system is adenovirus type 6 (ADV6). The experiment in a line: Evaluation of anti-adenovirus activity: CRL-11516 cells infected with ADV6, anti-hexon staining, count of stained cells. It counts as cell-based. As for the experimental part: A system in which CRL-11516 cells (available from ATCC) were infected with adenovirus type 6 (hereinafter, referred to as ADV6) was constructed, and a test for evaluating the anti-adenovirus activity of the compound according to the embodiment of the present invention and the compound of Comparative Example was carried out using the system. The test for evaluating the anti-adenovirus activity was carried out according to the method described below.
CRL-11516 cells were added to a 96-well plate at a cell density of 1×10^4 cells/well and cultured at 37° C. for 24 hours. After the culture was completed, the cell culture liquid was removed, and a serial dilution (100 μL) of the compound according to the embodiment of the present invention or the compound of Comparative Example was added. ADV6 (corresponding to 50TCID50) was added thereto, followed by culturing at 37° C. for 48 hours.
After the culture was completed, the infected cells were stained using Adeno-X Rapid Titer Kit (manufactured by Takara Bio Inc.). 100% methanol was added thereto and the cells were fixed at −20° C. for 10 minutes. The plate was washed three times with phosphate buffered saline (hereinafter, referred to as PBS) and then Mouse Anti-Hexon Antibody was added thereto, followed by incubation at 37° C. for 1 hour. After the incubation was completed, the plate was washed three times with PBS, and Rat Anti-Mouse Antibody was added thereto, followed by incubation at 37° C. for 1 hour. After the incubation was completed, a mixed staining solution of Stable Peroxidase Buffer:DAB Substrate=10:1 was added thereto, followed by incubation at room temperature for 10 minutes for staining of the cells.
The number of dark brown-stained cells was counted under a microscope, and the concentration of the test drug that reduces the dark brown-stained cells by 50% was defined as EC50. EC50 values were calculated for the triplicate test results, and a mean value and a standard deviation thereof were determined.

Setting [1] is: Human mastadenovirus C, 48 h, CRL-11516 cells infected with ADV6, 48 hours culture, concentration reducing dark brown-stained cells by 50%, read-out: Anti-AdV activity EC50.
Where [2] appears, read: CRL-11516 cells infected with ADV6, 48 hours culture, concentration reducing dark brown-stained cells by 50%, read-out: Anti-AdV activity EC50.

Like-named read-outs stand apart in the source and are kept apart here.

Take `CC(C)OC(=O)[C@H](C)N[P@](=O)(OC[C@@H]1C=C[C@H](n2cnc3c(OC4CCC4)nc(N)nc32)C1)Oc1ccccc1` [Example 2-2-36, Isopropyl ((S)-(((1S,4R)-4-(2-amino-6-cyclobutoxy-9H-purin-9-yl)cyclopent-2-en-1-yl)methoxy)(phenoxy)phosphoryl)-L-alaninate]: the EC50 under setting [1] lay in the range of 100 to 1000 nM.
Consider `CC(C)OC(=O)[C@H](C)N[P@@](=O)(OC[C@@H]1C=C[C@H](n2cnc3c(N4CCC4)nc(N)nc32)C1)Oc1ccccc1` [Example 2-2-37, isopropyl ((R)-(((1S,4R)-4-(2-amino-6-(azetidin-1-yl)-9H-purin-9-yl)cyclopent-2-en-1-yl)methoxy)(phenoxy)phosphoryl)-L-alaninate], for which the EC50 under setting [1] was 10 to 100 nM.
Still for that read-out and setting: with `COC(=O)[C@H](C)NP(=O)(OC[C@@H]1C=C[C@H](n2cnc3c(OC)nc(N)nc32)C1)Oc1ccccc1` (stereo partly drawn) [Example 4-2-1, methyl ((((1 S,4R)-4-(2-amino-6-methoxy-9H-purin-9-yl)cyclopent-2-en-1-yl)methoxy)(phenoxy)phosphoryl)-L-alaninate] the figure was 10 to 100 nM.
`COC(=O)[C@H](C)NP(=O)(OC[C@@H]1C=C[C@H](n2cnc3c(OC)nc(N)nc32)C1)Oc1ccccc1` (stereo partly drawn) [Example 4-2-2, methyl ((((1 S,4R)-4-(2-amino-6-methoxy-9H-purin-9-yl)cyclopent-2-en-1-yl)methoxy)(phenoxy)phosphoryl)-L-alaninate]: the EC50 under setting [2] lay in the range of 10 to 100 nM.
In the case of `CC(C)OC(=O)[C@H](C)NP(=O)(OC[C@@H]1C=C[C@H](n2cnc3c(Cl)nc(N)nc32)C1)Oc1ccccc1` (stereo partly drawn) [Example 4-3-1, Isopropyl ((((1 S,4R)-4-(2-amino-6-chloro-9H-purin-9-yl)cyclopent-2-en-1-yl)methoxy)(phenoxy)phosphoryl)-L-alaninate], the EC50 under setting [2] was in the range of 10 to 100 nM.
Same read-out and setting: with `CC(C)OC(=O)[C@H](C)NP(=O)(OC[C@@H]1C=C[C@H](n2cnc3c(Cl)nc(N)nc32)C1)Oc1ccccc1` (stereo partly drawn) [Example 4-3-2, Isopropyl ((((1 S,4R)-4-(2-amino-6-chloro-9H-purin-9-yl)cyclopent-2-en-1-yl)methoxy)(phenoxy)phosphoryl)-L-alaninate] the figure was 100 to 1000 nM.
The same measure, in the same setting: with `COc1nc(N)nc2c1ncn2[C@H]1C=C[C@@H](COP(=O)(N[C@@H](C)C(=O)OC(C)C)Oc2ccccc2)C1` (stereo partly drawn) [Example 4-4-1, Isopropyl ((((1 S,4R)-4-(2-amino-6-methoxy-9H-purin-9-yl)cyclopent-2-en-1-yl)methoxy)(phenoxy)phosphoryl)-L-alaninate] the figure was 10 to 100 nM.
For `COc1nc(N)nc2c1ncn2[C@H]1C=C[C@@H](COP(=O)(N[C@@H](C)C(=O)OC(C)C)Oc2ccccc2)C1` (stereo partly drawn) [Example 4-4-2, Isopropyl ((((1 S,4R)-4-(2-amino-6-methoxy-9H-purin-9-yl)cyclopent-2-en-1-yl)methoxy)(phenoxy)phosphoryl)-L-alaninate], the EC50 under setting [2] is 100 to 1000 nM.
As to `COC(=O)[C@H](C)NP(=O)(OC[C@@H]1C=C[C@H](n2cnc3c(Cl)nc(N)nc32)C1)Oc1ccc(Cl)cc1` (stereo partly drawn) [Example 4-5-1, methyl ((((1 S,4R)-4-(2-amino-6-chloro-9H-purin-9-yl)cyclopent-2-en-1-yl)methoxy)(4-chlorophenoxy)phosphoryl)-L-alaninate], the EC50 under setting [1] is under 10 nM.
`COC(=O)[C@H](C)NP(=O)(OC[C@@H]1C=C[C@H](n2cnc3c(Cl)nc(N)nc32)C1)Oc1ccc(Cl)cc1` (stereo partly drawn) [Example 4-5-2, methyl ((((1 S,4R)-4-(2-amino-6-chloro-9H-purin-9-yl)cyclopent-2-en-1-yl)methoxy)(4-chlorophenoxy)phosphoryl)-L-alaninate]: the EC50 under setting [2] lay within 10 to 100 nM.
Turning to `COC(=O)[C@H](C)NP(=O)(OCCSC(=O)C(C)(C)C)OC[C@@H]1C=C[C@H](n2cnc3c(OC)nc(N)nc32)C1` (stereo partly drawn) [Example 4-6-1, ((((1S,4R)-4-(2-amino-6-methoxy-9H-purin-9-yl)cyclopent-2-en-1-yl)methoxy)(2-(pivaloylthio)ethoxy)phosphoryl)-L-alaninate], the EC50 under setting [2] was under 10 nM.
Same read-out and setting: with `COC(=O)[C@H](C)NP(=O)(OCCSC(=O)C(C)(C)C)OC[C@@H]1C=C[C@H](n2cnc3c(OC)nc(N)nc32)C1` (stereo partly drawn) [Example 4-6-2, ((((1S,4R)-4-(2-amino-6-methoxy-9H-purin-9-yl)cyclopent-2-en-1-yl)methoxy)(2-(pivaloylthio)ethoxy)phosphoryl)-L-alaninate] the figure was under 10 nM.
Regarding `COc1nc(N)nc2c1ncn2[C@H]1C=C[C@@H](COP(=O)(OCCSC(=O)C(C)(C)C)Oc2ccccc2)C1` (stereo partly drawn) [Example 4-7-1, S-(2-(((((1 S,4R)-4-(2-amino-6-methoxy-9H-purin-9-yl)cyclopent-2-en-1-yl)methoxy) (phenoxy)phosphoryl)oxy)ethyl) 2,2-dimethylpropanethioate], the EC50 (Human mastadenovirus C, 48 h, read-out: Anti-AdV activity EC50, CRL-11516 cells infected with ADV6, 48 hours culture, concentration reducing dark brown-stained cells by 50%) lay within 10 to 100 nM.
Regarding `COc1nc(N)nc2c1ncn2[C@H]1C=C[C@@H](COP(=O)(OCCSC(=O)C(C)(C)C)Oc2ccccc2)C1` (stereo partly drawn) [Example 4-7-2, S-(2-(((((1 S,4R)-4-(2-amino-6-methoxy-9H-purin-9-yl)cyclopent-2-en-1-yl)methoxy) (phenoxy)phosphoryl)oxy)ethyl) 2,2-dimethylpropanethioate], the EC50 (read-out: Anti-AdV activity EC50, CRL-11516 cells infected with ADV6, 48 hours culture, concentration reducing dark brown-stained cells by 50%) was 10 to 100 nM.
As to `COC(=O)[C@H](C)NP(=O)(OCCSC(=O)C(C)(C)CO)OC[C@@H]1C=C[C@H](n2cnc3c(Cl)nc(N)nc32)C1` (stereo partly drawn) [Example 5-1, methyl ((((1 S,4R)-4-(2-amino-6-chloro-9H-purin-9-yl)cyclopent-2-en-1-yl)methoxy)(2-((3-hydroxy-2,2-dimethylpropanoyl)thio)ethoxy)phosphoryl)-L-alaninate], where the note is “Human mastadenovirus C, CRL-11516 cells infected with ADV6, 48 hours culture, concentration reducing dark brown-stained cells by 50%, read-out: Anti-AdV activity EC50”, the EC50 is 100 to 1000 nM.
Regarding `COc1cccc(OP(=O)(N[C@@H](C)C(=O)OC(C)C)OC[C@@H]2C=C[C@H](n3cnc4c(OC)nc(N)nc43)C2)c1` (stereo partly drawn) [Example 6-2-7, isopropyl ((((1S,4R)-4-(2-amino-6-methoxy-9H-purin-9-yl)cyclopent-2-en-1-yl)methoxy)(3-methoxyphenoxy)phosphoryl)-L-alaninate], under setting [1], the EC50 lay in the range of 10 to 100 nM.
On to `COc1nc(N)nc2c1ncn2[C@H]1C=C[C@@H](COP(=O)(N[C@@H](C)C(=O)OC(C)C)Oc2ccc3c(c2)OCO3)C1` (stereo partly drawn) [Example 6-2-21, isopropyl ((((1S,4R)-4-(2-amino-6-methoxy-9H-purin-9-yl)cyclopent-2-en-1-yl)methoxy)(benzo[d][1,3]dioxolo-5-yloxy)phosphoryl)-L-alaninate], for which the EC50 under setting [2] lay within 10 to 100 nM.
With `COCCOc1cccc(OP(=O)(N[C@@H](C)C(=O)OC(C)C)OC[C@@H]2C=C[C@H](n3cnc4c(OC)nc(N)nc43)C2)c1` (stereo partly drawn) [Example 6-2-23, isopropyl ((((1S,4R)-4-(2-amino-6-methoxy-9H-purin-9-yl)cyclopent-2-en-1-yl)methoxy)(3-(2-methoxyethoxy)phenoxy)phosphoryl)-L-alaninate], the EC50 under setting [1] is under 10 nM.
Regarding `COc1nc(N)nc2c1ncn2[C@H]1C=C[C@@H](COP(=O)(N[C@@H](C)C(=O)OC(C)C)Oc2cccc3ccccc23)C1` (some centres unmarked) [Example 6-2-25], under setting [2], the EC50 was under 10 nM.
Still for that read-out and setting: with “Isopropyl ((((1S,4R)-4-(2-amino-6-methoxy- 9H-purin-9-yl)cyclopent-2-en-1- yl)methoxy)(naphthalen-1-yloxy) phosphoryl)-L-alaninate [Example 6-2-26]” the figure was 10 to 100 nM.
